Here are results for 20 compounds from patent publication US10287255B2, “Compounds as histone deacetylase 6 inhibitors and pharmaceutical compositions comprising the same” (CHONG KUN DANG PHARMACEUTICAL CORP., priority 2014, dated 2019).

Test [1] deals with T1, human recombinant HDAC1 (Homo sapiens, UniProt Q13547).
T1 construct: purchased Enzo Life Science BML-SE456
The experiment in a line: HDAC1 enzyme activity inhibition assay (in vitro, fluorimetric). The following applies: human recombinant HDAC1, fluorimetric kit, 30° C. 60 minutes. The class given is biochemical. The procedure, abridged: (§1)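 IC50 values derive from fluorescence (Ex 360, Em 460) after developer treatment (30 min) of reactions of recombinant human HDAC1 or HDAC6 with 10 μM Fluor de Lys-SIRT1 substrate (60 min, 30 °C). Compounds were serially diluted 5-fold; 0.3 μg enzyme was used for HDAC1, with HDAC6 tested identically.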

Test [2] concerns the target T2, human recombinant HDAC6 (Homo sapiens, UniProt Q9UBN7).
T2 construct: purchased Calbiochem 382180
T2 sequence (Q9UBN7 1-1215): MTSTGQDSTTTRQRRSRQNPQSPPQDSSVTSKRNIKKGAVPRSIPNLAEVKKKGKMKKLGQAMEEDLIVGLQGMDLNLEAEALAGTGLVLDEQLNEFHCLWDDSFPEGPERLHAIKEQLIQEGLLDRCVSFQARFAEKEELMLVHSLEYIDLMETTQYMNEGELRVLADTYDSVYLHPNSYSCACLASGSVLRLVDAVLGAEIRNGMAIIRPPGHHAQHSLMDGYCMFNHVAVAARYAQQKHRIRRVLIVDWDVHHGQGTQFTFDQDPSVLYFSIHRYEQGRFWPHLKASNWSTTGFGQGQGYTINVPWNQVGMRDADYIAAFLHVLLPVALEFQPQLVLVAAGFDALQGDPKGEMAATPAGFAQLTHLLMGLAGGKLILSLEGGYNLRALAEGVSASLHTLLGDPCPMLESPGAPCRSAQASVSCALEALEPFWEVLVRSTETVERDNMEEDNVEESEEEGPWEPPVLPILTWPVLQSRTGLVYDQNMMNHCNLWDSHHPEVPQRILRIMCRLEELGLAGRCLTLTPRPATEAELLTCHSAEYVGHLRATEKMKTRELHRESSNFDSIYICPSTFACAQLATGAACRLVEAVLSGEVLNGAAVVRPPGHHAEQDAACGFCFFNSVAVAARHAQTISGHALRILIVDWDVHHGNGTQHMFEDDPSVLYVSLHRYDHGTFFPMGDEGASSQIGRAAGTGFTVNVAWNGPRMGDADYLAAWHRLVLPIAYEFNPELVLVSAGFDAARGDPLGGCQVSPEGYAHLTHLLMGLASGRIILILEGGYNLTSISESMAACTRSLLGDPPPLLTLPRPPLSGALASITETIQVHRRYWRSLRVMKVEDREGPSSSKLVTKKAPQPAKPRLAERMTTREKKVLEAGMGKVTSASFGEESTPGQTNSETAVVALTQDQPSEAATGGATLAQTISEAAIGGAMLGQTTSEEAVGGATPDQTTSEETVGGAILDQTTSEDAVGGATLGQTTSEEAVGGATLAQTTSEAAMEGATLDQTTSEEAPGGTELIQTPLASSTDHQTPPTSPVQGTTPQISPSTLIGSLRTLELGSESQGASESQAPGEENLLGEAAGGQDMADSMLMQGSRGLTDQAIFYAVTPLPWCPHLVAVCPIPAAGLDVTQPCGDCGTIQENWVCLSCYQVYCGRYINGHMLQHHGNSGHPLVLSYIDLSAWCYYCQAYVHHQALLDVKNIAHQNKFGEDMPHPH
The test is described as follows: HDAC6 enzyme activity inhibition assay (in vitro, fluorimetric). The format is biochemical. Conditions: for HDAC6 selectivity (fold): HDAC6 selectivity over HDAC1; for IC50: human recombinant HDAC6, fluorimetric kit, same protocol as HDAC1. In a few lines: as §1

The IC50 is the concentration that inhibits the measured activity by half.

T1 sequence (Q13547 whole entry): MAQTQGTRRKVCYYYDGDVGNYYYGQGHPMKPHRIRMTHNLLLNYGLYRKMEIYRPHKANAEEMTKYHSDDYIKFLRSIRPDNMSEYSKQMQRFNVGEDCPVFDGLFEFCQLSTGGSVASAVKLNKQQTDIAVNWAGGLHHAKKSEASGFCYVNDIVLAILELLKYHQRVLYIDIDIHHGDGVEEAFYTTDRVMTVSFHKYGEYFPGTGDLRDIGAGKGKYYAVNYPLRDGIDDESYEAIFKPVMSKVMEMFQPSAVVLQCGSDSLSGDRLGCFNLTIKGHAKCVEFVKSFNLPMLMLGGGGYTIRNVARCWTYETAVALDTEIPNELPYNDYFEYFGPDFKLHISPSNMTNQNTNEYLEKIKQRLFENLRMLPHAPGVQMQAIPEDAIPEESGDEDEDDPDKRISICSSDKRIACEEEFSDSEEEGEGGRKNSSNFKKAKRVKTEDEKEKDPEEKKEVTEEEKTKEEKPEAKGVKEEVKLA

Regarding `C[C@@H]1CN(Cc2ccccc2-c2cccnc2)C[C@H](C)N1Cc1ccc(C(=O)NO)cc1` [Compound 349, 4-(((2S,6R)-2,6-dimethyl-4-(2-(pyridin-3-yl)benzyl)piperazin-1-yl)methyl)-N-hydroxybenzamide], the IC50 in test [1] is 5000 nM. Further, in test [2], the “HDAC6 selectivity (fold)” value is given as 1000 fold and the IC50 amounted to 5 nM.
The corresponding values for `C[C@@H]1CN(Cc2ccc(C(=O)NO)cc2)C[C@H](C)N1C(=O)c1ccc(CN2CCN(S(C)(=O)=O)CC2)cc1` [Compound 463, 4-(((3R,5S)-3,5-dimethyl-4-(4-((4-(methylsulfonyl)piperazin-1-yl)methyl)benzoyl)piperazin-1-yl)methyl)-N-hydroxybenzamide] are 4700 nM, 18 fold and 256 nM.
The corresponding values for `C[C@@H]1CN(Cc2ccc(/C=C/C(=O)NO)cc2)C[C@H](C)N1C(=O)c1ccco1` [Compound 322, (E)-3-(4-(((3R,5S)-4-(furan-2-carbonyl)-3,5-dimethylpiperazin-1-yl)methyl)phenyl)-N-hydroxyacrylamide] are 1100 nM, 6 fold and 175 nM.
On to `C[C@@H]1CN(Cc2ccccc2-c2ccncc2)C[C@H](C)N1Cc1ccc(C(=O)NO)cc1` [Compound 350, 4-(((2S,6R)-2,6-dimethyl-4-(2-(pyridin-4-yl)benzyl)piperazin-1-yl)methyl)-N-hydroxybenzamide], for which the IC50 in test [1] amounted to 3300 nM. In addition, in test [2], the “HDAC6 selectivity (fold)” value was determined as 17 fold and the concentration for half-maximal inhibition (IC50) amounted to 194 nM.
For `CCN1[C@H](C)CN(Cc2ccc(C(=O)NO)cc2)C[C@@H]1C` [Compound 147, 4-(((3R,5S)-4-ethyl-3,5-dimethylpiperazin-1-yl)methyl)-N-hydroxybenzamide], in test [1], the IC50 was more than 10000 nM. For the same compound, in test [2], the “HDAC6 selectivity (fold)” value was more than 90 fold and the IC50 was found to be 111 nM.
In the same order, the values of `C[C@@H]1CN(Cc2ccc(C(=O)NO)cc2)C[C@H](C)N1S(=O)(=O)c1ccccc1` [Compound 100, 4-(((3R,5S)-3,5-dimethyl-4-(phenylsulfonyl)piperazin-1-yl)methyl)-N-hydroxybenzamide] are more than 10000 nM, more than 105 fold and 95 nM.
The corresponding values for `C[C@@H]1CN(Cc2ccc(C(=O)NO)cc2)C[C@H](C)N1Cc1ccc(OCC2CCN(CC(C)(C)F)CC2)cc1` [Compound 388, 4-(((3R,5S)-4-(4-((1-(2-fluoro-2-methylpropyl)piperidin-4-yl)methoxy)benzyl)-3,5-dimethylpiperazin-1-yl)methyl)-N-hydroxybenzamide] are 9000 nM, 109 fold and 83 nM.
For `C[C@@H]1CN(Cc2ccc(C(=O)NO)cc2)C[C@H](C)N1C(=O)Oc1ccccc1` [Compound 177, phenyl(2S,6R)-4-(4-(hydroxycarbamoyl)benzyl)-2,6-dimethylpiperazine-1-carboxylate], the results for the half-maximal inhibitory concentration (IC50) in test [1] and in test [2] were 5800 nM and 31 nM, respectively. Besides, the “HDAC6 selectivity (fold)” value in test [2] worked out at 186 fold.
The corresponding values for `C[C@@H]1CN(Cc2ccccc2)C[C@H](C)N1Cc1ccc(/C=C/C(=O)NO)cc1` [Compound 175, (E)-3-(4-(((2S,6R)-4-benzyl-2,6-dimethylpiperazin-1-yl)methyl)phenyl)-N-hydroxyacrylamide] are 6100 nM, 68 nM and 90 fold.
In the same order, the values of `C[C@@H]1CN(Cc2ccc3ccccc3c2)C[C@H](C)N1Cc1ccc(C(=O)NO)cc1` [Compound 268, 4-(((2S,6R)-2,6-dimethyl-4-(naphthalen-2-ylmethyl)piperazin-1-yl)methyl)-N-hydroxybenzamide] are 2800 nM, 1270 nM and 2 fold.
The corresponding values for `C[C@@H]1CN(C(=O)c2cccc(C3=CCC(C)(C)CC3)c2)C[C@H](C)N1Cc1ccc(C(=O)NO)cc1` [Compound 263, 4-(((2S,6R)-4-(4′,4′-dimethyl-2′,3′,4′,5′-tetrahydro-[1,1′-biphenyl]-3-carbonyl)-2,6-dimethylpiperazin-1-yl)methyl)-N-hydroxybenzamide] are 6800 nM, more than 1000 nM and less than 7 fold.
With `C[C@@H]1CN(Cc2ccc(C(=O)NO)cc2)C[C@H](C)N1C(=O)Cc1cccc(C(F)(F)F)c1` [Compound 223, 4-(((3R,5S)-3,5-dimethyl-4-(2-(3-(trifluoromethyl)phenyl)acetyl)piperazin-1-yl)methyl)-N-hydroxybenzamide], in test [1], the 50% inhibitory concentration (IC50) came to 900 nM. Also, in test [2], the “HDAC6 selectivity (fold)” value came to 8 fold and the 50% inhibitory concentration (IC50) amounted to 118 nM.
The corresponding values for `C[C@@H]1CN(S(=O)(=O)c2ccccc2Cl)C[C@H](C)N1Cc1ccc(C(=O)NO)cc1` [Compound 110, 4-(((2S,6R)-4-((2-chlorophenyl)sulfonyl)-2,6-dimethylpiperazin-1-yl)methyl)-N-hydroxybenzamide] are 5000 nM, 59 fold and 85 nM.
Turning to `C[C@@H]1CN(Cc2ccc(C(=O)NO)cc2)C[C@H](C)N1C(=O)c1ccc(Cl)cc1` [Compound 122, 4-(((3R,5S)-4-(4-chlorobenzoyl)-3,5-dimethylpiperazin-1-yl)methyl)-N-hydroxybenzamide], the IC50 in test [1] came to 3600 nM. In test [2], the “HDAC6 selectivity (fold)” value was 717 fold and the IC50 amounted to 5 nM.
The corresponding values for `C[C@@H]1CN(S(=O)(=O)c2ccc(CC(=O)NO)cc2)C[C@H](C)N1Cc1ccccc1` [Compound 820, 2-(4-(((3R,5S)-4-benzyl-3,5-dimethylpiperazin-1-yl)sulfonyl)phenyl)-N-hydroxyacetamide] are 2250 nM, 9 fold and 250 nM.
Regarding `C[C@@H]1CN(S(=O)(=O)c2ccccc2)C[C@H](C)N1Cc1ccc(C(=O)NO)cc1` [Compound 105, 4-(((2S,6R)-2,6-dimethyl-4-(phenylsulfonyl)piperazin-1-yl)methyl)-N-hydroxybenzamide], the 50% inhibitory concentration (IC50) in test [1] was found to be 1600 nM. Further, in test [2], the “HDAC6 selectivity (fold)” value was 27 fold and the IC50 came to 60 nM.
Take `Cc1ccccc1NC(=O)N1C[C@@H](C)N(Cc2ccc(C(=O)NO)cc2)[C@@H](C)C1` [Compound 166, (3R,5S)-4-(4-(hydroxycarbamoyl)benzyl)-3,5-dimethyl-N-o-tolylpiperazine-1-carboxamide]: the figures for the IC50 in test [1] and in test [2] were 4300 nM and 452 nM, respectively. Besides, in test [2], the “HDAC6 selectivity (fold)” value is 10 fold.
Take `C[C@@H]1CN(Cc2ccc(C(=O)NO)cc2)C[C@H](C)N1C(=O)c1cccc(C2=CCOCC2)c1` [Compound 244, 4-(((3R,5S)-4-(3-(3,6-dihydro-2H-pyran-4-yl)benzoyl)-3,5-dimethylpiperazin-1-yl)methyl)-N-hydroxybenzamide]: the 50% inhibitory concentration (IC50) in test [1] worked out at 3400 nM; in test [2], 97 nM. Further, in test [2], the “HDAC6 selectivity (fold)” value is on record as 35 fold.
The corresponding values for `C[C@@H]1CN(Cc2ccc(C(=O)NO)cc2)C[C@@H](C)N1Cc1ccccc1` [Compound 248, 4-(((3R,5R)-4-benzyl-3,5-dimethylpiperazin-1-yl)methyl)-N-hydroxybenzamide] are 8500 nM, 89 nM and 96 fold.
In the same order, the values of `C[C@@H]1CN(CC2CCC(C(=O)NO)CC2)C[C@H](C)N1Cc1ccccc1` (stereo partly drawn) [Compound 822, 4-(((3R,5S)-4-benzyl-3,5-dimethylpiperazin-1-yl)methyl)-N-hydroxycyclohexane-1-carboxamide] are more than 10000 nM, 280 nM and more than 35 fold.
